Measurements taken from ChEMBL document CHEMBL1201862, “PubChem BioAssay data set” (2004).
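Values below derive from 48-hour exposures of cells grown in 96-well plates, with endpoints linearly interpolated between the two concentrations bracketing the appropriate inhibition level. GI50 is the concentration that inhibits growth by half.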 Calls of active or inactive are those of the source. Cut-off read from the data, not from the text of the source: active = GI50 up to about 1.1 µM and inactive = higher.

Experiments:
Experiment in all cases: NCI tumour cell line growth inhibition, 48 h
A498 = tested on: A498
UACC-62 = tested on: UACC-62
OVCAR-4 = tested on: OVCAR-4
K562 = tested on: K562
SW-620 = tested on: SW-620
NCI-H522 = tested on: NCI-H522
SN12C = tested on: SN12C
ACHN = tested on: ACHN
SF-539 = tested on: SF-539
A549 = tested on: A549
SK-MEL-5 = tested on: SK-MEL-5
DMS-114 = tested on: DMS-114
OVCAR-5 = tested on: OVCAR-5
IGROV-1 = tested on: IGROV-1
SR = tested on: SR
SF-295 = tested on: SF-295
M19-MEL = tested on: M19-MEL
OVCAR-3 = tested on: OVCAR-3
COLO 205 = tested on: COLO 205
UO-31 = tested on: UO-31
HOP-62 = tested on: HOP-62
KM-20L2 = tested on: KM-20L2
RXF 631 = tested on: RXF 631
MOLT-4 = tested on: MOLT-4
SNB-78 = tested on: SNB-78
LOX IMVI = tested on: LOX IMVI
EKVX = tested on: EKVX
HT-29 = tested on: HT-29
XF498 = tested on: XF498
RPMI-8226 = tested on: RPMI-8226
SNB-75 = tested on: SNB-75
HCT-15 = tested on: HCT-15
786-0 = tested on: 786-0
HCC 2998 = tested on: HCC 2998
OVCAR-8 = tested on: OVCAR-8
NCI-H460 = tested on: NCI-H460
TK-10 = tested on: TK-10
HCT-116 = tested on: HCT-116
Malme-3M = tested on: Malme-3M
SK-MEL-2 = tested on: SK-MEL-2
LXFL 529 = tested on: LXFL 529
HL-60 = tested on: HL-60
U-251 = tested on: U-251
M14 = tested on: M14
RXF 393 = tested on: RXF 393
NCI-H23 = tested on: NCI-H23
HOP-92 = tested on: HOP-92
CCRF-CEM = tested on: CCRF-CEM
CAKI-1 = tested on: CAKI-1
DMS-273 = tested on: DMS-273
SF-268 = tested on: SF-268
SK-MEL-28 = tested on: SK-MEL-28
SK-OV-3 = tested on: SK-OV-3
DLD-1 = tested on: DLD-1
SNB-19 = tested on: SNB-19
UACC-257 = tested on: UACC-257
NCI-H226 = tested on: NCI-H226
KM12 = tested on: KM12
HOP-18 = tested on: HOP-18

**Q.** What does the source list for `NC(=O)COc1ccccc1`?
**A.** GI50 (A498): > 100 µM (inactive); GI50 (UACC-62): > 100 µM (inactive); GI50 (OVCAR-4): > 100 µM (inactive); GI50 (K562): > 100 µM (inactive); GI50 (SW-620): > 100 µM (inactive); GI50 (NCI-H522): > 100 µM (inactive); GI50 (SN12C): > 100 µM (inactive); GI50 (ACHN): > 100 µM (inactive); GI50 (SF-539): > 100 µM (inactive); GI50 (A549): > 100 µM (inactive); GI50 (SK-MEL-5): > 100 µM (inactive); GI50 (DMS-114): > 100 µM (inactive); GI50 (OVCAR-5): > 100 µM (inactive); GI50 (IGROV-1): > 100 µM (inactive); GI50 (SR): > 100 µM (inactive); GI50 (SF-295): > 100 µM (inactive); GI50 (M19-MEL): > 100 µM (inactive); GI50 (OVCAR-3): > 100 µM (inactive); GI50 (COLO 205): > 100 µM (inactive); GI50 (UO-31): > 100 µM (inactive); GI50 (HOP-62): > 100 µM (inactive); GI50 (KM-20L2): > 100 µM (inactive); GI50 (RXF 631): > 100 µM (inactive); GI50 (MOLT-4): > 100 µM (inactive); GI50 (SNB-78): > 100 µM (inactive); GI50 (LOX IMVI): > 100 µM (inactive); GI50 (EKVX): > 100 µM (inactive); GI50 (HT-29): > 100 µM (inactive); GI50 (XF498): > 100 µM (inactive); GI50 (RPMI-8226): > 100 µM (inactive); GI50 (SNB-75): > 100 µM (inactive); GI50 (HCT-15): > 100 µM; GI50 (786-0): > 100 µM (inactive); GI50 (HCC 2998): > 100 µM (inactive); GI50 (OVCAR-8): > 100 µM (inactive); GI50 (NCI-H460): > 100 µM (inactive); GI50 (TK-10): > 100 µM (inactive); GI50 (HCT-116): > 100 µM (inactive); GI50 (Malme-3M): > 100 µM (inactive); GI50 (SK-MEL-2): > 100 µM (inactive); GI50 (LXFL 529): > 100 µM (inactive); GI50 (HL-60): > 100 µM (inactive); GI50 (U-251): > 100 µM (inactive); GI50 (M14): > 100 µM (inactive); GI50 (RXF 393): > 100 µM (inactive); GI50 (NCI-H23): > 100 µM (inactive); GI50 (HOP-92): > 100 µM (inactive); GI50 (CCRF-CEM): > 100 µM (inactive); GI50 (CAKI-1): > 100 µM (inactive); GI50 (DMS-273): > 100 µM (inactive); GI50 (SF-268): > 100 µM (inactive); GI50 (SK-MEL-28): > 100 µM (inactive); GI50 (SK-OV-3): > 100 µM (inactive); GI50 (DLD-1): > 100 µM (inactive); GI50 (SNB-19): > 100 µM (inactive); GI50 (UACC-257): > 100 µM (inactive); GI50 (NCI-H226): > 100 µM (inactive); GI50 (KM12): > 100 µM (inactive)

**Q.** With `Cc1nc(C(N)=S)sc1C(=O)/C=C/c1cccc(O)c1` as the compound, how does the GI50 (A498) read?
**A.** > 100 µM (inactive)

**Q.** What about the GI50 (UACC-62) of the same compound?
**A.** > 100 µM (inactive)

**Q.** And the GI50 (K562)?
**A.** 29.9 µM (inactive)

**Q.** What about the GI50 (SW-620) of the same compound?
**A.** 82.8 µM (inactive)

**Q.** What about the GI50 (NCI-H522) of the same compound?
**A.** 90.4 µM (inactive)

**Q.** And the GI50 (SN12C)?
**A.** > 100 µM (inactive)

**Q.** What about the GI50 (ACHN) of the same compound?
**A.** 56.6 µM (inactive)

**Q.** What about the GI50 (SF-539) of the same compound?
**A.** > 100 µM (inactive)

**Q.** What about the GI50 (A549) of the same compound?
**A.** > 100 µM (inactive)

**Q.** What about the GI50 (SK-MEL-5) of the same compound?
**A.** > 100 µM (inactive)

**Q.** What about the GI50 (DMS-114) of the same compound?
**A.** 68.1 µM (inactive)

**Q.** And the GI50 (OVCAR-5)?
**A.** > 100 µM (inactive)

**Q.** And the GI50 (IGROV-1)?
**A.** > 100 µM (inactive)

**Q.** What about the GI50 (SF-295) of the same compound?
**A.** > 100 µM (inactive)

**Q.** What about the GI50 (M19-MEL) of the same compound?
**A.** > 100 µM (inactive)

**Q.** What about the GI50 (OVCAR-3) of the same compound?
**A.** > 100 µM (inactive)

**Q.** And the GI50 (COLO 205)?
**A.** > 100 µM (inactive)

**Q.** And the GI50 (UO-31)?
**A.** > 100 µM (inactive)

**Q.** And the GI50 (HOP-18)?
**A.** > 100 µM (inactive)

**Q.** What about the GI50 (HOP-62) of the same compound?
**A.** > 100 µM (inactive)

**Q.** And the GI50 (KM-20L2)?
**A.** > 100 µM (inactive)

**Q.** What about the GI50 (RXF 631) of the same compound?
**A.** > 100 µM (inactive)

**Q.** What about the GI50 (MOLT-4) of the same compound?
**A.** 21.9 µM (inactive)

**Q.** What about the GI50 (SNB-78) of the same compound?
**A.** > 100 µM (inactive)

**Q.** And the GI50 (LOX IMVI)?
**A.** 45.2 µM (inactive)

**Q.** And the GI50 (EKVX)?
**A.** > 100 µM (inactive)

**Q.** What about the GI50 (HT-29) of the same compound?
**A.** > 100 µM (inactive)

**Q.** What about the GI50 (RPMI-8226) of the same compound?
**A.** 25.9 µM (inactive)

**Q.** What about the GI50 (SNB-75) of the same compound?
**A.** 59.6 µM (inactive)

**Q.** What about the GI50 (HCT-15) of the same compound?
**A.** > 100 µM

**Q.** And the GI50 (786-0)?
**A.** > 100 µM (inactive)

**Q.** What about the GI50 (HCC 2998) of the same compound?
**A.** > 100 µM (inactive)

**Q.** And the GI50 (OVCAR-8)?
**A.** > 100 µM (inactive)

**Q.** What about the GI50 (NCI-H460) of the same compound?
**A.** > 100 µM (inactive)

**Q.** What about the GI50 (TK-10) of the same compound?
**A.** > 100 µM (inactive)

**Q.** And the GI50 (Malme-3M)?
**A.** > 100 µM (inactive)

**Q.** What about the GI50 (SK-MEL-2) of the same compound?
**A.** > 100 µM (inactive)

**Q.** What about the GI50 (HL-60) of the same compound?
**A.** 36.1 µM (inactive)

**Q.** And the GI50 (U-251)?
**A.** > 100 µM (inactive)

**Q.** And the GI50 (RXF 393)?
**A.** > 100 µM (inactive)

**Q.** And the GI50 (NCI-H23)?
**A.** > 100 µM (inactive)

**Q.** What about the GI50 (HOP-92) of the same compound?
**A.** 60.4 µM (inactive)

**Q.** And the GI50 (CCRF-CEM)?
**A.** 28.4 µM (inactive)

**Q.** What about the GI50 (CAKI-1) of the same compound?
**A.** > 100 µM (inactive)

**Q.** And the GI50 (DMS-273)?
**A.** > 100 µM (inactive)

**Q.** And the GI50 (SF-268)?
**A.** 87.3 µM (inactive)

**Q.** And the GI50 (SK-MEL-28)?
**A.** > 100 µM (inactive)

**Q.** What about the GI50 (SK-OV-3) of the same compound?
**A.** > 100 µM (inactive)

**Q.** And the GI50 (DLD-1)?
**A.** > 100 µM (inactive)

**Q.** And the GI50 (UACC-257)?
**A.** > 100 µM (inactive)

**Q.** What about the GI50 (NCI-H226) of the same compound?
**A.** > 100 µM (inactive)

**Q.** What about the GI50 (KM12) of the same compound?
**A.** 32.4 µM (inactive)
